Data as given in ChEMBL document CHEMBL2440076, “New triarylpyrazoles as broad-spectrum anticancer agents: design, synthesis, and biological evaluation” (Eur J Med Chem, 2013).

Legend:
IGROV-1 = assay: Growth inhibition of human IGROV1 cells after 48 hrs by sulforhodamine B assay; assay type: functional; settings: IGROV-1, 48 h
[1] = Growth inhibition of human Hs 578T cells after 48 hrs by sulforhodamine B assay; assay type: functional
NCI-H460 = assay: Growth inhibition of human NCI-H460 cells after 48 hrs by sulforhodamine B assay; assay type: functional; settings: NCI-H460, 48 h
SF-295 = assay: Growth inhibition of human SF295 cells after 48 hrs by sulforhodamine B assay; assay type: functional, cell-based; settings: SF-295, 48 h
PC-3 = assay: Growth inhibition of human PC3 cells after 48 hrs by sulforhodamine B assay; assay type: functional, cell-based; settings: PC-3, 48 h
DU-145 = assay: Growth inhibition of human DU145 cells assessed as cell growth at 10 uM after 48 hrs by sulforhodamine B assay; assay type: functional; settings: DU-145, 48 h, read-out: Activity
SK-MEL-28 = assay: Growth inhibition of human SK-MEL-28 cells assessed as cell growth at 10 uM after 48 hrs by sulforhodamine B assay; assay type: functional; settings: SK-MEL-28, 48 h, read-out: Activity
OVCAR-5 [2] = assay: Growth inhibition of human OVCAR5 cells after 48 hrs by sulforhodamine B assay; assay type: functional; settings: OVCAR-5, 48 h
OVCAR-5 [3] = assay: Growth inhibition of human OVCAR5 cells assessed as cell growth at 10 uM after 48 hrs by sulforhodamine B assay; assay type: functional; settings: OVCAR-5, 48 h, read-out: Activity
MOLT-4 = assay: Growth inhibition of human MOLT4 cells after 48 hrs by sulforhodamine B assay; assay type: functional; settings: MOLT-4, 48 h
NCI-H23 = assay: Growth inhibition of human NCI-H23 cells assessed as cell growth at 10 uM after 48 hrs by sulforhodamine B assay; assay type: functional; settings: NCI-H23, 48 h, read-out: Activity
UACC-257 = assay: Growth inhibition of human UACC257 cells after 48 hrs by sulforhodamine B assay; assay type: functional; settings: UACC-257, 48 h
KM12 = assay: Growth inhibition of human KM12 cells after 48 hrs by sulforhodamine B assay; assay type: functional, cell-based; settings: KM12, 48 h
MDA-MB-231 [4] = assay: Growth inhibition of human MDA-MB-231 cells assessed as cell growth at 10 uM after 48 hrs by sulforhodamine B assay; assay type: functional; settings: MDA-MB-231, 48 h, read-out: Activity
K562 = assay: Growth inhibition of human K562 cells assessed as cell growth at 10 uM after 48 hrs by sulforhodamine B assay; assay type: functional; settings: K562, 48 h, read-out: Activity
SW-620 = assay: Growth inhibition of human SW620 cells assessed as cell growth at 10 uM after 48 hrs by sulforhodamine B assay; assay type: functional; settings: SW-620, 48 h, read-out: Activity
[5] = Growth inhibition of human NCI-ADR-RES cells after 48 hrs by sulforhodamine B assay; assay type: functional
SK-MEL-2 = assay: Growth inhibition of human SK-MEL-2 cells after 48 hrs by sulforhodamine B assay; assay type: functional; settings: SK-MEL-2, 48 h
M14 = assay: Growth inhibition of human M14 cells assessed as cell growth at 10 uM after 48 hrs by sulforhodamine B assay; assay type: functional; settings: M14, 48 h, read-out: Activity
COLO 205 = assay: Growth inhibition of human COLO205 cells assessed as cell growth at 10 uM after 48 hrs by sulforhodamine B assay; assay type: functional; settings: COLO 205, 48 h, read-out: Activity
HL-60(TB) = assay: Growth inhibition of human HL-60(TB) cells after 48 hrs by sulforhodamine B assay; assay type: functional; settings: HL-60, 48 h
NCI-H322M = assay: Growth inhibition of human NCI-H322M cells after 48 hrs by sulforhodamine B assay; assay type: functional
U-251 = assay: Growth inhibition of human U251 cells assessed as cell growth at 10 uM after 48 hrs by sulforhodamine B assay; assay type: functional; settings: U-251, 48 h, read-out: Activity
SF-268 = assay: Growth inhibition of human SF268 cells assessed as cell growth at 10 uM after 48 hrs by sulforhodamine B assay; assay type: functional; settings: SF-268, 48 h, read-out: Activity
MDA-MB-231 [6] = assay: Growth inhibition of human MDA-MB-231 cells after 48 hrs by sulforhodamine B assay; assay type: functional; settings: MDA-MB-231, 48 h
RPMI-8226 = assay: Growth inhibition of human RPMI8226 cells assessed as cell growth at 10 uM after 48 hrs by sulforhodamine B assay; assay type: functional; settings: RPMI-8226, 48 h, read-out: Activity
RXF 393 = assay: Growth inhibition of human RXF393 cells after 48 hrs by sulforhodamine B assay; assay type: functional; settings: RXF 393, 48 h
T47D = assay: Growth inhibition of human T47D cells assessed as cell growth at 10 uM after 48 hrs by sulforhodamine B assay; assay type: functional; settings: read-out: Activity
CCRF-CEM = assay: Growth inhibition of human CCRF-CEM cells after 48 hrs by sulforhodamine B assay; assay type: functional
HOP-62 = assay: Growth inhibition of human HOP62 cells assessed as cell growth at 10 uM after 48 hrs by sulforhodamine B assay; assay type: functional; settings: HOP-62, 48 h, read-out: Activity
MDA-MB-435 = assay: Growth inhibition of human MDA-MB-435 cells after 48 hrs by sulforhodamine B assay; assay type: functional, cell-based; settings: MDA-MB-435, 48 h
MCF7 = assay: Growth inhibition of human MCF7 cells after 48 hrs by sulforhodamine B assay; assay type: functional; settings: MCF7, 48 h
BT-549 = assay: Growth inhibition of human BT549 cells after 48 hrs by sulforhodamine B assay; assay type: functional; settings: BT-549, 48 h
[7] = read-out: LC50 (the source's name)

Compound `COc1cc(-c2nn(-c3cccc(NC(=O)c4ccc(N5CCOCC5)c(C(F)(F)F)c4)c3)cc2-c2ccncc2)ccc1Cl` has a GI50 (IGROV-1) of 437 nM, an LC50 (concentration killing 50% of cells) (IGROV-1) greater than 100000 nM and a TGI (IGROV-1) of 6790 nM. It also gave a GI50 [1] of 262 nM, a TGI [1] greater than 100000 nM and a CC50 [1, 7] greater than 100000 nM. It also gave a GI50 (NCI-H460) of 336 nM, an LC50 (NCI-H460) greater than 100000 nM and a TGI (NCI-H460) greater than 100000 nM. The GI50 (SF-295) was 150 nM, the IC50 (SF-295) was 150 nM and the TGI (SF-295) was 1150 nM. For the same compound, the CC50 (SF-295; [7]) was 6310 nM, the GI50 (PC-3) was 251 nM and the IC50 (PC-3) was 250 nM. For the same compound, the TGI (PC-3) was 14700 nM, the CC50 (PC-3; [7]) was greater than 100000 nM and the growth at 10 µM (DU-145) was 10.9%. The growth at 10 µM (SK-MEL-28) was 28.4%, the GI50 (OVCAR-5 [2]) was 1450 nM and the LC50 (concentration killing 50% of cells) (OVCAR-5 [2]) was greater than 100000 nM. It also gave a TGI (OVCAR-5 [2]) greater than 100000 nM, a growth at 10 µM (OVCAR-5 [3]) of 34.7% and a GI50 (MOLT-4) of 669 nM. It also gave a TGI (MOLT-4) greater than 100000 nM, a CC50 (MOLT-4; [7]) greater than 100000 nM and a growth at 10 µM (NCI-H23) of 15.6%. For the same compound, the GI50 (UACC-257) was 935 nM, the TGI (UACC-257) was 8140 nM and the CC50 (UACC-257; [7]) was greater than 100000 nM. For the same compound, the GI50 (KM12) was 248 nM, the IC50 (KM12) was 250 nM and the TGI (KM12) was 6600 nM. It also gave a CC50 (KM12; [7]) greater than 100000 nM, a growth at 10 µM (MDA-MB-231 [4]) of -25.2% and a growth at 10 µM (K562) of 1.22%. The growth at 10 µM (SW-620) was 25.2%, the GI50 [5] was 228 nM and the TGI [5] was greater than 100000 nM. The CC50 [5, 7] was greater than 100000 nM, the GI50 (SK-MEL-2) was 291 nM and the LC50 (50% lethal concentration) (SK-MEL-2) was greater than 100000 nM. The TGI (SK-MEL-2) was 8240 nM, the growth at 10 µM (M14) was 1.42% and the growth at 10 µM (COLO 205) was -43.4%. It also gave a GI50 (HL-60(TB)) of 298 nM, a TGI (HL-60(TB)) greater than 100000 nM and a CC50 (HL-60(TB); [7]) greater than 100000 nM. It also gave a GI50 (NCI-H322M) of 603 nM, a TGI (NCI-H322M) of 94400 nM and a CC50 (NCI-H322M; [7]) greater than 100000 nM. The growth at 10 µM (U-251) was 2.49%, the growth at 10 µM (SF-268) was 22.5% and the GI50 (MDA-MB-231 [6]) was 299 nM. It also gave an LC50 (MDA-MB-231 [6]) greater than 100000 nM, a TGI (MDA-MB-231 [6]) of 2390 nM and a growth at 10 µM (RPMI-8226) of 8.3%. It also gave a GI50 (RXF 393) of 199 nM, an LC50 (concentration killing 50% of cells) (RXF 393) greater than 100000 nM and a TGI (RXF 393) of 674 nM. For the same compound, the growth at 10 µM (T47D) was 27.5%, the GI50 (CCRF-CEM) was 236 nM and the LC50 (CCRF-CEM) was greater than 100000 nM. It also gave a TGI (CCRF-CEM) greater than 100000 nM, a growth at 10 µM (HOP-62) of 29.4% and a GI50 (MDA-MB-435) of 26.6 nM. The IC50 (MDA-MB-435) was 27 nM, the TGI (MDA-MB-435) was 91.4 nM and the CC50 (MDA-MB-435; [7]) was greater than 100000 nM. For the same compound, the GI50 (MCF7) was 285 nM, the LC50 (MCF7) was greater than 100000 nM and the TGI (MCF7) was greater than 1000 nM. For the same compound, the GI50 (BT-549) was 1410 nM, the LC50 (50% lethal concentration) (BT-549) was greater than 100000 nM and the TGI (BT-549) was greater than 100000 nM.

`COc1cc(-c2nn(-c3cccc(NC(=O)c4ccc(Br)c(C)c4)c3)cc2-c2ccncc2)ccc1Cl` showed a growth at 10 µM (DU-145) of 102%, a growth at 10 µM (SK-MEL-28) of 80.2% and a growth at 10 µM (OVCAR-5 [3]) of 90.7%. For the same compound, the growth at 10 µM (NCI-H23) was 86.9%, the growth at 10 µM (MDA-MB-231 [4]) was 67% and the growth at 10 µM (K562) was 77.3%. It also gave a growth at 10 µM (SW-620) of 82.7%, a growth at 10 µM (M14) of 74.7% and a growth at 10 µM (COLO 205) of 76.2%. It also gave a growth at 10 µM (U-251) of 73.7%, a growth at 10 µM (SF-268) of 84.1% and a growth at 10 µM (RPMI-8226) of 64.7%. It also gave a growth at 10 µM (T47D) of 70.3% and a growth at 10 µM (HOP-62) of 91.8%.

`Cc1cc(C(=O)Nc2cccc(-n3cc(-c4ccncc4)c(-c4ccc(Cl)c(O)c4)n3)c2)ccc1Br` gave a growth at 10 µM (DU-145) of 103%, a growth at 10 µM (SK-MEL-28) of 93.5% and a growth at 10 µM (OVCAR-5 [3]) of 109%. For the same compound, the growth at 10 µM (NCI-H23) was 97.9%, the growth at 10 µM (MDA-MB-231 [4]) was 70% and the growth at 10 µM (K562) was 91.4%. For the same compound, the growth at 10 µM (SW-620) was 125%, the growth at 10 µM (M14) was 89.5% and the growth at 10 µM (COLO 205) was 102%. For the same compound, the growth at 10 µM (U-251) was 92.1%, the growth at 10 µM (SF-268) was 104% and the growth at 10 µM (RPMI-8226) was 92.1%. It also gave a growth at 10 µM (T47D) of 87.7% and a growth at 10 µM (HOP-62) of 98%.
